Results on one substance are retold here after US12629410B2, “Multi-antigenic peptide mimics of gonococcal lipo-oligosaccharide (LOS) epitopes” (priority 2019, dated 2026).

Assay [1] relates to LOS purified from N. gonorrhoeae strain 15253. The format is in vivo. The following applies: for mean anti-LOS IgG level: n=13.
The test system of assay [2] is 15253 ΔlgtG LOS. As to the kind of experiment: ELISA of immune sera against 2C7-negative LOS (specificity). The format is in vivo, N. gonorrhoeae. The following applies: sera of mice immunized with TMCP2 + GLA-SE. The method, then:
Microtiter wells were coated with LOS purified from 15253 or 15253 ΔlgtG (80 μg/ml) in PBS as described previously. Serial dilutions of immune sera were dispensed into wells and bound anti-LOS Ab was disclosed with anti-mouse IgG conjugated to alkaline phosphatase. A standard curve for mouse IgG was generated by coating wells with anti-mouse IgG (Sigma) and pure mouse IgG (Sigma) also as described previously.

Assay [3] concerns mAb 2C7. As to the kind of experiment: Inhibition ELISA: inhibition of mAb 2C7 binding to immobilized gonococcal LOS. The text has this: FIGS. 1A-1B show the structure and characterization of one of the peptide mimics described herein (also referred to as TMCP2). […] The 2C7 mimitope is indicated in shown as the sequence “H2C-CO-GPIPVLDENGLFAPGPC” (SEQ ID NO: 1) Cyclization is maintained through a thioether bond. The reverse peptide mimic core is represented the schematic of the peptide mimic as “Ac-β-Ala-Glu[Glu-OH]2.” The reverse peptide mimic core links to each cyclic peptide through a lysine (K) residue.
In order to compare antigenicity of peptide mimic Core Peptide 2 (monomeric cyclic CP2) and composite TMCP2 compounds with LOS that expresses the 2C7 epitope, inhibition ELISA was performed using mAb 2C7 reacted with the individual compounds to assess inhibition of binding (residual binding) of mAb to LOS by each compound. Microtiter wells were coated with LOS (80 μg/ml in PBS) purified from strain FA1090. Wells were washed and blocked with PBS-0.05% Tween 20. mAb 2C7 (0.04 μg/ml) either alone or containing monomeric cyclic peptide CP2 (1.07 to 1070 μM) or composite TMCP2 (concentrations ranging from […]) was dispended into LOS coated wells. Residual binding of 2C7 mAb was measured with anti-mouse IgG conjugated to alkaline phosphatase. Bound IgG was quantitated using a mouse IgG standard curve and percent inhibition determined compared to reaction mixtures that […].
Attempts to measure mAb 2C7 (7) binding directly to immobilized peptide mimic Core Peptide 2 (abbreviated CP2 in FIG. 1A) and composite TMCP2 by ELISA were not successful. The possibility of poor capture of the peptides by the microtiter wells was considered and therefore used an ELISA to measure inhibition of binding (residual binding) of mAb 2C7 to immobilized gonococcal LOS that had been reacted with increasing concentrations of the peptides (FIG. 1B).
Background: An ELISA detects its analyte on a solid surface through an enzyme-linked reagent.

The test system of assay [4] is N. gonorrhoeae strain FA1090. Put plainly: Mouse vaginal colonization model (protection experiment). Format: in vivo. The following applies: BALB/c n=14/group; TMCP2 50 μg + GLA-SE, 3 doses 2 weeks apart. The method, then: Use of animals in this study was performed in strict accordance with the recommendations in the Guide for the Care and Use of Laboratory Animals of the National Institutes of Health. The protocol was approved by the Institutional Animal Care and Use Committee (IACUC) at the University of Massachusetts Medical School. The BALB/c mouse model of vaginal colonization described by Jerse was used (25). Two weeks after the last immunization, mice in the diestrus phase of the estrous cycle were started on treatment (that day) with 0.1 mg PREMARIN® (Pfizer; a mixture of sodium estrone sulfate and sodium equilin sulfate also containing sodium sulfate conjugates of 17α-dihydroequilin, 17α-estradiol and 17β-dihydroequilin) in 200 μl of water, given subcutaneously on each of three days; −2, 0 and +2 days (before, the day of and after gonococcal inoculation) to prolong the estrus phase of the reproductive cycle and promote susceptibility to N. gonorrhoeae infection. […]
Experiments that compared clearance of N. gonorrhoeae in independent groups of mice estimated and tested three characteristics of the data (13): 1) time to clearance; 2) longitudinal trends in mean log10 CFU; 3) and the cumulative CFU as area under the curve (AUC). […] A quadratic or cubic function in time was determined to provide the best fit; random slopes were linear in time. […]

Setting [5] is: TMCP2 50 μg + GLA-SE, 3 doses 2 weeks apart, 11 mice.

“Also recorded” adds a separate entry of the source. Where two headings read alike, the source gives them in different places. Bridges are numbered along the chain shown (N, C = ends).

In the case of “[(CH2-CO-GPIPVLDENGLFAPGPC)-K-OH]4 ({CH2CO}-GPIPVLDENGLFAPGPCK-OH; thioether N-17; also: tetrameric MAP) [TMCP2]”, in assay [1] (5 mice, TMCP2 50 μg/dose + GLA-SE at 0, 2, 4 weeks, 2 weeks after third dose), the “anti-LOS IgG in vaginal swabs” value is reported as “detected”. Also, the “anti-LOS IgG levels in intact immune sera, all mice” value in assay [1] (BALB/c, n=13 per group, TMCP2 50, 100 or 200 μg/dose + GLA-SE, 3 weeks apart) is on record as “exceeded 2 μg/ml”. For the same substance, the “anti-LOS IgG response in 3 of 5 mice” value in assay [1] (BALB/c, TMCP2 50 μg dose + GLA-SE, 3 doses) is on record as “exceeded 10 μg/ml”. Moreover, the “anti-LOS IgG response, every mouse” value in assay [1] (BALB/c, TMCP2 50, 100 or 200 μg + GLA-SE, 3 doses 3 weeks apart, two weeks after final boosting) is “exceeded 2 μg/ml”. Also, the “mean anti-LOS level, post-dose 3 immune sera” value in assay [1] (setting [5]) came out at 2.31 µg/mL. The “range of anti-LOS level, post-dose 3 immune sera” value in assay [1] (setting [5]) lay within 1.33 to 3.59 µg/mL. The “mean anti-LOS IgG level” value in assay [1] (TMCP2 50 μg/dose + GLA-SE, 3 doses 3 weeks apart) turned out to be 4.98 µg/mL; in assay [1] (TMCP2 100 μg/dose + GLA-SE, 3 doses 3 weeks apart) it was 4.06 µg/mL; in assay [1] (TMCP2 200 μg/dose + GLA-SE, 3 doses 3 weeks apart) it was 3.8 µg/mL. Moreover, the “IgM response to the 2C7 epitope” value in assay [1] (pooled post-dose 3 sera, IgM binding to 15253 LOS vs 15253 ΔlgtG LOS) is listed as “no apparent IgM response”. Also, the “anti-LOS titers in immunization experiments” value in assay [1] (tetrapeptides 50 μg/dose plus Sigma MPL adjuvant, BALB/c, FIG. 10) is listed as “higher anti-LOS titers than TMCP4”. The “IgG reactivity of immune sera with 15253 ΔlgtG LOS” value in assay [2] is given as “non-reactivity; also recorded: no IgG binding”. Besides, in assay [3], the “fold lower molar concentration of TMCP2 (compared to CP2) required to achieve 50% inhibition” value is listed as approximately 4 fold. Besides, the IC50 in assay [3] (mAb 2C7 0.04 μg/ml, LOS-coated wells, read-out: concentration giving 50% inhibition of mAb 2C7 binding to immobilized 15253 LOS) worked out at 25 µM. In assay [4], the “gonococcal colonization, biweekly schedule” value was “effectively attenuated gonococcal colonization”.
